How the values were obtained:
Type in all cases: cell-based
[1] = system: pluripotent culture; test: HD-DoE experiment for E8 critical process parameter (CPP) media determination; details: 1:1 F12/IMDM hybrid media, FIG. 3
Source text: To monitor the differentiation state of a pluripotent culture and track the primed state, naïve state and any early lineage commitment biases that may arise during the culture process, a network consisting of 54 genes was chosen (FIG. 1). Other genes monitored throughout this series of experiments include TERT and KI67. Maximal TERT expression is needed to sustain the pluripotent state in both naïve and primed cells while KI67, a proliferation marker, is expected to increase in the naïve state. Housekeeping genes measured within this QS chip design are used to normalize the individual experimental runs. This network of genes was then monitored using an HD-DoE methodology (Bukys et al. (2020) Iscience 23:101346) as further described in Example 2 to enable in silico modelling of the pluripotent state.
An initial HD-DoE modelling experiment was designed to determine if any of the components within the Essential 8 (E8) media were critical for pluripotent maintenance. The results of this experiment are depicted in FIG. 2. E8 media components include HEPES, bicarbonate, selenium, ascorbic acid, transferrin, insulin, FGF2 and TGF-β. HEPES, bicarbonate and selenium were not considered in this HD-DoE design, because they are additives that are not specific for the maintenance of the pluripotent state but are involved in enabling the overall growth of any cells in culture. In addition, these components are present in most generic media formulations, whereas the initial HD-DoE experiment herein utilized a 1:1 F12/IMDM hybrid media already containing HEPES, bicarbonate and selenium. In addition to the E8 components, human leukemia inhibitory factor (hLIF), AICAR (AMPK pathway agonist), CHIR 99021 (Wnt agonist/[…] antagonist), Go6983 (PKC pathway antagonist), PD0325901 (MEK pathway antagonist), and Y27632 (ROCK inhibitor) were evaluated within this design (FIG. 2). These components were selected based on previous experiments indicating the potential contribution of these components to maintenance of the pluripotent state.
Whereas the overall pluripotent state was driven by Go6983, the naïve state was favored by Y27632.

[2] = system: pluripotent colony; test: Protein additives assayed in the TB5i formulation, with immuno-histochemical validation; details: additive in the TB5i formulation, FIG. 8A
Source text: The protein additives FGF2, TGF-β1 and insulin were next assayed as additives in the TB5i formulation (FIG. 8A).

[3] = system: pluripotent culture; test: HD-DoE experiment for pluripotent maintenance (optimization of naïve, primed and pluripotent genes); details: FIG. 6A
Source text: A data-driven, High-Dimensional Design of Experiments (HD-DoE)-based perturbation of a pluripotent culture was used to assay several cellular signaling pathways known to function within the pluripotent state. The HD-DOE method was applied with the intent to find conditions for directly inducing the naïve state from the pluripotent stem cell state. This example utilizes a method previously described by Bukys et al. (2020) Iscience 23:101346, which employs computerized design geometries to simultaneously test multiple process inputs and provide for mathematical modeling of a deep effector/response space. The method allows for finding combinatorial signaling inputs that control a complex differentiation process and allows testing of multiple plausible critical process parameters impacting output responses, such as gene expression. […]
To develop a cell culture recipe for growing and maintaining PSCs in cell culture and for differentiation of stem cells to naïve state progenitors, the impact of agonists and antagonists of multiple signaling pathways (herein called effectors) on the expression of pre-selected genes was tested and modeled. The impact of each effector on gene expression level is defined by a parameter called factor contribution that is calculated for each effector during the modeling. […]

[4] = system: pluripotent cells; test: Adherent culture validation of TB5i media and comparison with TB7i; details: direct comparison between TB5i and TB7i, FIG. 7A-7B
Method: In an exemplary embodiment, a PSC culture, such as the CR01 iPSC line, is grown and maintained on vitronectin coated 6-well TC plates using a culture media of the present application, such as TB5i media. PSC cultures are generally passaged every 3-4 days and treated with agents for disrupting cell-to-cell adhesion, such as EDTA, or digestion enzymes, such as collagenase, accutase, trypsin, or […]. This can be accomplished by removing the media and washing each well of the TC plate with 2 ml of PBS. A 3-minute incubation in the presence of 5 mM EDTA can then be performed at 37 degrees C. Wells are then aspirated, and the cells are washed off from the plates and seeded in fresh media. Each well passaged is generally seeded onto 6 wells of a newly vitronectin-coated TC plate resulting in a 1 to 6 expansion of the iPSC line.

Compound: transferrin
- contribution to maintaining the pluripotent state [1]: beneficial in maintaining the pluripotent state

Compound: O=C1O[C@H]([C@@H](O)CO)C(O)=C1O [ascorbic acid]
- contribution to maintaining the pluripotent state [1]: beneficial in maintaining the pluripotent state

Compound: TGF-β1
- morphology of the pluripotent colony edges [2]: sustained normal morphology

Compound: insulin
- effect on the culture [2]: little, if any beneficial effect

Compound: FGF2
- growth rate of the culture [2]: increased the growth rate

Compound: C[C@@H](N)[C@H]1CC[C@H](C(=O)Nc2ccncc2)CC1 [Y27632]
- contribution to maintaining the pluripotent state [1]: potentially aid in pluripotent maintenance
- criticality to the process (sequential optimization of all naïve, primed and pluripotent genes) [3]: neither the cAMP activator forskolin, nor the ROCK pathway inhibitor were critical
- benefit to the overall growth of pluripotent cells [4]: neither forskolin, nor Y27632 were beneficial

Compound: COc1ccc2c(c1)c(C1=C(c3c[nH]c4ccccc34)C(=O)NC1=O)cn2CCCN(C)C [Go6983]
- contribution to maintaining the pluripotent state [1]: potentially aid in pluripotent maintenance

Reference: patent publication US20240117302A1, “COMPOSITIONS AND METHODS FOR SMALL MOLECULE BASED EXPANSION OF PLURIPOTENT STEM CELLS” (Trailhead Biosystems Inc., priority 2022, published 2024)
